Assay results as given in US6447782B1, “Lipid extract of the Skeletonema algae” (Parfums Christian Dior, priority 1998, dated 2002).

Test system: 3′,5′-cAMP phosphodiesterase (PDE)
Experiment: Test for inhibitory activity on PDE (hydrolysis of cAMP to AMP, AMP measured by HPLC)
Type: biochemical
Conditions: reaction time 5 minutes, lipid extract 0.1% in DMSO, theophylline 0.2% in DMSO
Protocol: The principle of the test is based on the hydrolysis of cyclic 3′5′-adenosine monophosphate(cAMP) to adenosine monophosphate (AMP). The formation of AMP is measured by HPLC (high performance liquid chromatography) analysis.
The solutions of the reagents are prepared in 0.05 M Tris-HCl buffer at pH 7.5.
The lipid extracts to be tested are at a concentration of 0.1% in DMSO.
The same experiment is carried out with the reference active product theophylline (H. Kather, A. Scheurer, Effects of different phosphodiesterase inhibitors on the antilipolytic action of insulin in human adipocytes: Horm. Metabol. Res. 19 (1987) 379-381). Likewise, B. B. Fredholm, E. Lindger, Acta pharmacol. et toxicol., 54 (1984), pp. 64-71, “The effect of alkylxanthines and other phosphodiesterase inhibitors on adenosine receptor mediated decrease in lipolysis and cyclic AMP accumulation in rat fat cells” . . . These tests are reference tests for those skilled in the art.
The theophylline tested (SIGMA/Ref. T1633) is at a concentration of 0.2% in DMSO.
The composition of the reaction media is described below. […]
The amount of AMP formed is measured after a reaction time of 5 minutes by calculating the integration area of the AMP peak on the chromatogram produced by the HPLC apparatus (KONTRON S. A.). […]
The amount of AMP due to the action of PDE is measured after a reaction time of 5 minutes. […]

`Cn1c(=O)c2[nH]cnc2n(C)c1=O` [Theophylline, theophylline] was tested, and the “A (%) percentage inhibition of PDE” value was 35% and the “Integration area of AMP” value (DMSO control 40.80) was 26.52.
